# Measurements published in PubChem BioAssay (NCI).
#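 Cultured in 96-well plates, cells were exposed to test compound for 48 hours across five concentrations. TGI marks complete inhibition of growth.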
# Tests used:
# Experiment in all cases: inhibition of tumour cell growth, NCI panel, 48 h
# HOP-62 NSCLC = test system: HOP-62 NSCLC
# ACHN renal = test system: ACHN renal
# SK-OV-3 ovarian = test system: SK-OV-3 ovarian
# SW-620 colon = test system: SW-620 colon
# UACC-62 melanoma = test system: UACC-62 melanoma
# MCF7 breast = test system: MCF7 breast
# KM12 colon = test system: KM12 colon
# 786-0 renal = test system: 786-0 renal
# SF-295 CNS = test system: SF-295 CNS
# LOX IMVI melanoma = test system: LOX IMVI melanoma
# A498 renal = test system: A498 renal
# DU-145 prostate = test system: DU-145 prostate
# MDA-MB-435 = test system: MDA-MB-435
# SF-268 CNS = test system: SF-268 CNS
# TK-10 renal = test system: TK-10 renal
# HOP-92 NSCLC = test system: HOP-92 NSCLC
# NCI-H460 lung = test system: NCI-H460 lung
# EKVX NSCLC = test system: EKVX NSCLC
# SNB-19 CNS = test system: SNB-19 CNS
# UO-31 renal = test system: UO-31 renal
# SR leukemia = test system: SR leukemia
# SNB-75 CNS = test system: SNB-75 CNS
# HL-60(TB) leukemia = test system: HL-60(TB) leukemia
# RPMI-8226 leukemia = test system: RPMI-8226 leukemia
# MALME-3M melanoma = test system: MALME-3M melanoma
# CAKI-1 renal = test system: CAKI-1 renal
# A549 NSCLC = test system: A549 NSCLC
# SF-539 CNS = test system: SF-539 CNS
# HCC-2998 colon = test system: HCC-2998 colon
# HCT-15 colon = test system: HCT-15 colon
# MDA-N = test system: MDA-N
# SN12C renal = test system: SN12C renal
# OVCAR-4 ovarian = test system: OVCAR-4 ovarian
# HCT-116 colon = test system: HCT-116 colon
# U251 CNS = test system: U251 CNS
# COLO 205 colon = test system: COLO 205 colon
# IGROV1 ovarian = test system: IGROV1 ovarian
# M14 melanoma = test system: M14 melanoma
# HT29 colon = test system: HT29 colon
# K-562 leukemia = test system: K-562 leukemia
# OVCAR-8 ovarian = test system: OVCAR-8 ovarian
# BT-549 breast = test system: BT-549 breast
# CCRF-CEM leukemia = test system: CCRF-CEM leukemia
# OVCAR-5 ovarian = test system: OVCAR-5 ovarian
# HS 578T breast = test system: HS 578T breast
# MDA-MB-231 breast = test system: MDA-MB-231 breast
# T-47D breast = test system: T-47D breast
# NCI-H23 lung = test system: NCI-H23 lung
# NCI-H226 lung = test system: NCI-H226 lung
# SK-MEL-28 melanoma = test system: SK-MEL-28 melanoma
# NCI-H522 lung = test system: NCI-H522 lung
# SK-MEL-5 melanoma = test system: SK-MEL-5 melanoma
# SK-MEL-2 melanoma = test system: SK-MEL-2 melanoma
# NCI/ADR-RES ovarian = test system: NCI/ADR-RES ovarian
# PC-3 prostate = test system: PC-3 prostate
# OVCAR-3 ovarian = test system: OVCAR-3 ovarian
# RXF 393 renal = test system: RXF 393 renal
# UACC-257 melanoma = test system: UACC-257 melanoma
# MOLT-4 leukemia = test system: MOLT-4 leukemia
compound,measurement,setting,value
O=C(O)c1ccc(C(=O)c2ccccc2)c(C(=O)O)c1,TGI,HOP-62 NSCLC,> 100 µM
same,TGI,ACHN renal,> 100 µM
same,TGI,SK-OV-3 ovarian,> 100 µM
same,TGI,SW-620 colon,> 100 µM
same,TGI,UACC-62 melanoma,> 100 µM
same,TGI,MCF7 breast,> 100 µM
same,TGI,KM12 colon,> 100 µM
same,TGI,786-0 renal,> 100 µM
same,TGI,SF-295 CNS,> 100 µM
same,TGI,LOX IMVI melanoma,> 100 µM
same,TGI,A498 renal,> 100 µM
same,TGI,DU-145 prostate,> 100 µM
same,TGI,MDA-MB-435,> 100 µM
same,TGI,SF-268 CNS,> 100 µM
same,TGI,TK-10 renal,> 100 µM
same,TGI,HOP-92 NSCLC,> 100 µM
same,TGI,NCI-H460 lung,> 100 µM
same,TGI,EKVX NSCLC,> 100 µM
same,TGI,SNB-19 CNS,> 100 µM
same,TGI,UO-31 renal,> 100 µM
same,TGI,SR leukemia,> 100 µM
same,TGI,SNB-75 CNS,> 100 µM
same,TGI,HL-60(TB) leukemia,> 100 µM
same,TGI,RPMI-8226 leukemia,> 100 µM
same,TGI,MALME-3M melanoma,> 100 µM
same,TGI,CAKI-1 renal,> 100 µM
same,TGI,A549 NSCLC,> 100 µM
same,TGI,SF-539 CNS,> 100 µM
same,TGI,HCC-2998 colon,> 100 µM
same,TGI,HCT-15 colon,> 100 µM
same,TGI,MDA-N,> 100 µM
same,TGI,SN12C renal,> 100 µM
same,TGI,OVCAR-4 ovarian,> 100 µM
same,TGI,HCT-116 colon,> 100 µM
same,TGI,U251 CNS,> 100 µM
same,TGI,COLO 205 colon,> 100 µM
same,TGI,IGROV1 ovarian,> 100 µM
same,TGI,M14 melanoma,> 100 µM
same,TGI,HT29 colon,> 100 µM
same,TGI,K-562 leukemia,> 100 µM
same,TGI,OVCAR-8 ovarian,> 100 µM
same,TGI,BT-549 breast,> 100 µM
same,TGI,CCRF-CEM leukemia,> 100 µM
same,TGI,OVCAR-5 ovarian,> 100 µM
same,TGI,HS 578T breast,> 100 µM
same,TGI,MDA-MB-231 breast,> 100 µM
same,TGI,T-47D breast,> 100 µM
same,TGI,NCI-H23 lung,> 100 µM
same,TGI,NCI-H226 lung,> 100 µM
same,TGI,SK-MEL-28 melanoma,> 100 µM
same,TGI,NCI-H522 lung,> 100 µM
same,TGI,SK-MEL-5 melanoma,> 100 µM
same,TGI,SK-MEL-2 melanoma,> 100 µM
same,TGI,NCI/ADR-RES ovarian,> 100 µM
same,TGI,PC-3 prostate,> 100 µM
same,TGI,OVCAR-3 ovarian,> 100 µM
same,TGI,RXF 393 renal,> 100 µM
same,TGI,UACC-257 melanoma,> 100 µM
same,TGI,MOLT-4 leukemia,> 100 µM
NCCSS(=O)(=O)CCN,TGI,HOP-62 NSCLC,> 100 µM
same,TGI,ACHN renal,> 100 µM
same,TGI,SK-OV-3 ovarian,> 100 µM
same,TGI,SW-620 colon,> 100 µM
same,TGI,UACC-62 melanoma,> 100 µM
same,TGI,MCF7 breast,> 100 µM
same,TGI,KM12 colon,> 100 µM
same,TGI,786-0 renal,> 100 µM
same,TGI,SF-295 CNS,> 100 µM
same,TGI,LOX IMVI melanoma,> 100 µM
same,TGI,A498 renal,> 100 µM
same,TGI,DU-145 prostate,> 100 µM
same,TGI,MDA-MB-435,> 100 µM
same,TGI,SF-268 CNS,> 100 µM
same,TGI,TK-10 renal,> 100 µM
same,TGI,HOP-92 NSCLC,> 100 µM
same,TGI,NCI-H460 lung,> 100 µM
same,TGI,EKVX NSCLC,> 100 µM
same,TGI,SNB-19 CNS,> 100 µM
same,TGI,UO-31 renal,> 100 µM
same,TGI,SR leukemia,> 100 µM
same,TGI,SNB-75 CNS,> 100 µM
same,TGI,HL-60(TB) leukemia,> 100 µM
same,TGI,RPMI-8226 leukemia,> 100 µM
same,TGI,MALME-3M melanoma,> 100 µM
same,TGI,CAKI-1 renal,> 100 µM
same,TGI,A549 NSCLC,> 100 µM
same,TGI,SF-539 CNS,> 100 µM
same,TGI,HCC-2998 colon,> 100 µM
same,TGI,HCT-15 colon,> 100 µM
same,TGI,MDA-N,> 100 µM
same,TGI,SN12C renal,> 100 µM
same,TGI,OVCAR-4 ovarian,> 100 µM
same,TGI,HCT-116 colon,> 100 µM
same,TGI,U251 CNS,> 100 µM
same,TGI,COLO 205 colon,> 100 µM
same,TGI,IGROV1 ovarian,> 100 µM
same,TGI,M14 melanoma,> 100 µM
same,TGI,HT29 colon,> 100 µM
same,TGI,K-562 leukemia,> 100 µM
same,TGI,OVCAR-8 ovarian,> 100 µM
same,TGI,BT-549 breast,> 100 µM
same,TGI,CCRF-CEM leukemia,> 100 µM
same,TGI,OVCAR-5 ovarian,> 100 µM
same,TGI,HS 578T breast,> 100 µM
same,TGI,MDA-MB-231 breast,> 100 µM
same,TGI,T-47D breast,> 100 µM
same,TGI,NCI-H23 lung,> 100 µM
same,TGI,NCI-H226 lung,> 100 µM
same,TGI,SK-MEL-28 melanoma,> 100 µM
same,TGI,NCI-H522 lung,> 100 µM
same,TGI,SK-MEL-5 melanoma,> 100 µM
same,TGI,SK-MEL-2 melanoma,> 100 µM
same,TGI,NCI/ADR-RES ovarian,> 100 µM
same,TGI,PC-3 prostate,> 100 µM
same,TGI,OVCAR-3 ovarian,> 100 µM
same,TGI,RXF 393 renal,> 100 µM
same,TGI,MOLT-4 leukemia,> 100 µM
Oc1ccc(-c2cc(-c3cc(-c4ccc(O)cc4)no3)on2)cc1,TGI,HOP-62 NSCLC,> 100 µM
same,TGI,ACHN renal,> 100 µM
same,TGI,SK-OV-3 ovarian,> 100 µM
same,TGI,SW-620 colon,> 100 µM
same,TGI,UACC-62 melanoma,> 100 µM
same,TGI,MCF7 breast,> 100 µM
same,TGI,KM12 colon,> 100 µM
same,TGI,786-0 renal,> 100 µM
same,TGI,SF-295 CNS,> 100 µM
same,TGI,LOX IMVI melanoma,> 100 µM
same,TGI,A498 renal,> 100 µM
same,TGI,DU-145 prostate,> 100 µM
same,TGI,MDA-MB-435,> 100 µM
same,TGI,SF-268 CNS,> 100 µM
same,TGI,TK-10 renal,> 100 µM
same,TGI,HOP-92 NSCLC,> 100 µM
same,TGI,NCI-H460 lung,> 100 µM
same,TGI,EKVX NSCLC,> 100 µM
same,TGI,SNB-19 CNS,> 100 µM
same,TGI,UO-31 renal,> 100 µM
same,TGI,SR leukemia,> 31.6 µM
same,TGI,SNB-75 CNS,> 100 µM
same,TGI,HL-60(TB) leukemia,> 100 µM
same,TGI,RPMI-8226 leukemia,> 100 µM
same,TGI,MALME-3M melanoma,> 100 µM
same,TGI,CAKI-1 renal,> 100 µM
same,TGI,A549 NSCLC,> 100 µM
same,TGI,SF-539 CNS,> 49.7 µM
same,TGI,HCC-2998 colon,> 100 µM
same,TGI,HCT-15 colon,> 100 µM
same,TGI,MDA-N,> 100 µM
same,TGI,SN12C renal,> 100 µM
same,TGI,OVCAR-4 ovarian,> 100 µM
same,TGI,HCT-116 colon,> 100 µM
same,TGI,U251 CNS,> 100 µM
same,TGI,COLO 205 colon,> 100 µM
same,TGI,IGROV1 ovarian,> 100 µM
same,TGI,M14 melanoma,> 100 µM
same,TGI,HT29 colon,> 100 µM
same,TGI,K-562 leukemia,> 100 µM
same,TGI,OVCAR-8 ovarian,> 100 µM
same,TGI,BT-549 breast,> 100 µM
same,TGI,CCRF-CEM leukemia,> 100 µM
same,TGI,OVCAR-5 ovarian,> 100 µM
same,TGI,HS 578T breast,> 100 µM
same,TGI,MDA-MB-231 breast,> 100 µM
same,TGI,T-47D breast,> 100 µM
same,TGI,NCI-H23 lung,> 100 µM
same,TGI,NCI-H226 lung,> 100 µM
same,TGI,SK-MEL-28 melanoma,> 100 µM
same,TGI,NCI-H522 lung,> 100 µM
same,TGI,SK-MEL-5 melanoma,> 100 µM
same,TGI,SK-MEL-2 melanoma,> 100 µM
same,TGI,NCI/ADR-RES ovarian,> 100 µM
same,TGI,PC-3 prostate,> 100 µM
same,TGI,OVCAR-3 ovarian,> 100 µM
same,TGI,RXF 393 renal,> 100 µM
same,TGI,UACC-257 melanoma,> 31.1 µM
same,TGI,MOLT-4 leukemia,9.52 µM
